The assay has as its system LNCaP. The assay is described as follows: Antiproliferative activity against human LNCaP cell line. The assay is classed as functional, cell-based.
Where [1] appears, read: Homo sapiens, LNCaP, read-out: IC50.

Broadly, the IC50 is the concentration that gives 50% inhibition. `COc1cc2c(cc1O)CC[C@@H]1[C@@H]2CC[C@]2(C)[C@@H](OC(=O)CNC(=O)OCC3c4ccccc4-c4ccccc43)CC[C@@H]12`: the IC50 result (lncap) is on record as “Not Active”. As to `COc1cc2c(cc1O)CC[C@@H]1[C@@H]2CC[C@]2(C)[C@@H](OC(=O)CNC(=O)CCCCCNC(=O)OC(C)(C)C)CC[C@@H]12`, the IC50 under setting [1] was 600 nM. On to `COc1cc2c(cc1O)CC[C@@H]1[C@@H]2CC[C@]2(C)[C@@H](OC(=O)CNC(=O)CCCCCN)CC[C@@H]12`, for which the IC50 under setting [1] turned out to be 600 nM.

For the compound `COc1cc2c(cc1O)CC[C@@H]1[C@@H]2CC[C@]2(C)[C@@H](OC(=O)CN)CC[C@@H]12`, the IC50 under setting [1] came to 900 nM.

Regarding `COc1cc2c(cc1O)CC[C@@H]1[C@@H]2CC[C@]2(C)[C@@H](OC(=O)CNC(=O)CCCCCNC(=O)CCCC[C@@H]3SC[C@@H]4NC(=O)N[C@@H]43)CC[C@@H]12`, the IC50 under setting [1] came out at 600 nM. As to `COc1cc2c(cc1O)CC[C@@H]1[C@@H]2CC[C@]2(C)[C@@H](O)CC[C@@H]12` [2-METHOXYESTRADIOL], the IC50 under setting [1] is 500 nM.

The values above are taken from ChEMBL document CHEMBL1138074, “SAR studies of 2-methoxyestradiol and development of its analogs as probes of anti-tumor mechanisms” (Bioorg Med Chem Lett, 2006).
